The record followed here is patent US12319655B2, “RAF kinase inhibitors and methods of use thereof” (Deciphera Pharmaceuticals, LLC, priority 2021, dated 2025).

The target in test [1] is A-Raf kinase (SEQ. ID No: 1) (Homo sapiens (Human), UniProt P10398, Y301D/Y302D). In words: Biochemical Assay for A-Raf (1). The conditions noted are these: Table J. As to the method: Biochemical Assay for A-Raf (1)
Activity of A-Raf kinase (SEQ. ID No: 1) was determined spectroscopically using a coupled pyruvate kinase/lactate dehydrogenase assay that continuously monitors the ATP hydrolysis-dependent oxidation of NADH (e.g., Schindler et al., Science, 2000, 289, 1938-1942). Assays were conducted in 384-well plates (100 μL final volume) using 5.55 nM A-Raf (Sigma), 1.5 units pyruvate kinase, 2.1 units lactate dehydrogenase, 1 mM phosphoenol pyruvate, 0.28 mM NADH, 30.1 nM MEK (SignalChem), and 1 mM ATP in assay buffer (100 mM Tris, pH 7.5, 15 mM MgCl2, 0.5 mM DTT, 0.1% octyl-glucoside, 0.002% (w/v) BSA, and 0.002% Triton X-100). Inhibition of A-Raf was measured by adding serial diluted test compound (final assay concentration of 1% DMSO). A decrease in absorption at 340 nm was monitored continuously for 6 h at 30° C. on a multi-mode microplate reader (BioTek). The reaction rate was calculated using the 4 to 5 h time frame. The reaction rate at each concentration of compound was converted to percent inhibition using controls (i.e., reaction with no test compound and reaction with a known inhibitor) and IC50 values were calculated by fitting a four-parameter sigmoidal curve to the data using Prism (GraphPad software).

The target of test [2] is B-Raf (V600E) (SEQ. ID NO: 4) kinase (Homo sapiens (Human), UniProt P15056, V600E). Nature of the test: Biochemical Assay for B-Raf (V600E) (1). As to conditions: Table J, BRAF V600E. As to the method: Biochemical Assay for B-Raf (V600E) (1)
Activity of B-Raf (V600E) (SEQ. ID NO: 4) kinase was determined spectroscopically using a coupled pyruvate kinase/lactate dehydrogenase assay that continuously monitors the ATP hydrolysis-dependent oxidation of NADH (e.g., Schindler et al., Science, 2000, 289, 1938-1942). Assays were conducted in 384-well plates (100 μL final volume) using 0.03 nM B-Raf (SignalChem), 1.5 units pyruvate kinase, 2.1 units lactate dehydrogenase, 1 mM phosphoenol pyruvate, 0.28 mM NADH, 30.1 nM MEK (SignalChem), and 1 mM ATP in assay buffer (100 mM Tris, Ph 7.5, 15 mM MgCl2, 0.5 mM DTT, 0.1% octyl-glucoside, 0.002% (w/v) BSA, and 0.002% Triton X-100). Inhibition of B-Raf (V600E) was measured by adding serial diluted test compound (final assay concentration of 1% DMSO). A decrease in absorption at 340 nm was monitored continuously for 6 h at 30° C. on a multi-mode microplate reader (BioTek). The reaction rate was calculated using the 3 to 4 h time frame. The reaction rate at each concentration of compound was converted to percent inhibition using controls (i.e., reaction with no test compound and reaction with a known inhibitor) and IC50 values were calculated by fitting a four-parameter sigmoidal curve to the data using Prism (GraphPad software).

Test [3] addresses B-Raf kinase (SEQ. ID NO: 2) (Homo sapiens (Human), UniProt P15056). In words: Biochemical Assay for B-Raf (1). The conditions noted are these: Table J. As to the method: Biochemical Assay for B-Raf (1)
(§1) Activity of B-Raf kinase (SEQ. ID NO: 2) was determined spectroscopically using a coupled pyruvate kinase/lactate dehydrogenase assay that continuously monitors the ATP hydrolysis-dependent oxidation of NADH (e.g., Schindler et al., Science, 2000, 289, 1938-1942). Assays were conducted in 384-well plates (100 μL final volume) using 0.13 nM B-Raf (Sigma), 1.5 units pyruvate kinase, 2.1 units lactate dehydrogenase, 1 mM phosphoenol pyruvate, 0.28 mM NADH, 30.1 nM MEK (SignalChem), and 1 mM ATP in assay buffer (100 mM Tris, Ph 7.5, 15 mM MgCl2, 0.5 mM DTT, 0.1% octyl-glucoside, 0.002% (w/v) BSA, and 0.002% Triton X-100). Inhibition of B-Raf was measured by adding serial diluted test compound (final assay concentration of 1% DMSO). A decrease in absorption at 340 nm was monitored continuously for 6 h at 30° C. on a multi-mode microplate reader (BioTek). The reaction rate was calculated using the 4 to 5 h time frame. The reaction rate at each concentration of compound was converted to percent inhibition using controls (i.e., reaction with no test compound and reaction with a known inhibitor) and IC50 values were calculated by fitting a four-parameter sigmoidal curve to the data using Prism (GraphPad software).

Test [4] concerns the target C-Raf kinase (SEQ. ID NO: 3) (Homo sapiens (Human), UniProt P04049, Y340D/Y341D). Nature of the test: Biochemical Assay for C-Raf (1). The conditions noted are these: Table J. As to the method: Biochemical Assay for C-Raf (1)
as §1, with “of C-Raf” for “of B-Raf”, “NO: 3)” for “NO: 2)”, “using 0.43” for “using 0.13”, “nM C-Raf” for “nM B-Raf”

Where [5] appears, read: assay version (1), read-out: ARAF (1) IC50.
The mark [6] stands for this setting: assay version (1), read-out: BRAF VE (1) IC50.
Setting [7] is: assay version (1), read-out: BRAF (1) IC50.
The mark [8] stands for this setting: assay version (1), read-out: CRAF (1) IC50.

Read-outs that look alike come from different tables or passages of the source.

Chain of A-Raf kinase (SEQ. ID No: 1) (P10398 other isoform, or with tags, fused parts or gaps Y301D (already in the parent)/Y302D (already in the parent)): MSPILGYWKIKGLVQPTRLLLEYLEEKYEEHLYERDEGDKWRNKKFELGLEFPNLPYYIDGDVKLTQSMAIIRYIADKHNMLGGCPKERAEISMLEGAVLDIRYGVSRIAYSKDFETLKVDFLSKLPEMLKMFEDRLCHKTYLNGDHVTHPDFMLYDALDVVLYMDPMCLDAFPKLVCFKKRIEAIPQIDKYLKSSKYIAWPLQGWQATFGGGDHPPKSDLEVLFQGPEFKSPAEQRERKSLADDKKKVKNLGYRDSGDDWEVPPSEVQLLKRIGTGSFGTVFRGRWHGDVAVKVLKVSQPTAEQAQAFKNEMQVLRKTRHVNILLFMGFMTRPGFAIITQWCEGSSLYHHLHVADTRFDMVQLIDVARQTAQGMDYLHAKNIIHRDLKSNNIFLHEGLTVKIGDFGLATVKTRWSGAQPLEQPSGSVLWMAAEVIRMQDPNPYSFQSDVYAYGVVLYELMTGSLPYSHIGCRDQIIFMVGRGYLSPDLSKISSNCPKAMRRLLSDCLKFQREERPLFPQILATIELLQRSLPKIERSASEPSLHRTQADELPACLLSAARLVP
Chain of C-Raf kinase (SEQ. ID NO: 3) (P04049 307-648 Y340D/Y341D): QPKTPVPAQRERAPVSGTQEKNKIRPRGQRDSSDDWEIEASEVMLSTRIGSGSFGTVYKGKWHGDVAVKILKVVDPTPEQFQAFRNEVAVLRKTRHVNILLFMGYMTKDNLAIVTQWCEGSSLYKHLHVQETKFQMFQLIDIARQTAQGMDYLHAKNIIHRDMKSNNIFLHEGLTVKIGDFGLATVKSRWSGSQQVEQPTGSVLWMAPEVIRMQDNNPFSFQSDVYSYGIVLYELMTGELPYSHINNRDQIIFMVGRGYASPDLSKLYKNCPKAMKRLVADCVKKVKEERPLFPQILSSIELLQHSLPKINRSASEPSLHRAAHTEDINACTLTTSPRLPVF
Chain of B-Raf (V600E) (SEQ. ID NO: 4) kinase (P15056 416-766 V600E): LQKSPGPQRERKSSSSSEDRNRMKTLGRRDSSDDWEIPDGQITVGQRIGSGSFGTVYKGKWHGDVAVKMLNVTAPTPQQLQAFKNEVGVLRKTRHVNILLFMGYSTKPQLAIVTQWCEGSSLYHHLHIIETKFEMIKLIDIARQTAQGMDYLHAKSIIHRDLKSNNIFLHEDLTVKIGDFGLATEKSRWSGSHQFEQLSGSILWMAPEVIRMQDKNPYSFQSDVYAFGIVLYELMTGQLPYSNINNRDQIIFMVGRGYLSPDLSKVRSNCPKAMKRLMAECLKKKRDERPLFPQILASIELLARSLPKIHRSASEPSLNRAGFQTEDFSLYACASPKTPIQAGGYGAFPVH
Chain of B-Raf kinase (SEQ. ID NO: 2) (P15056 416-766): as the sequence (P15056 416-766 V600E) above, with E185V counted along it

For the compound `Cc1ccc(NC(=O)c2ccnc(C(C)(C)C#N)c2)cc1-c1ccnc(-c2ccnc(NC(=O)C(C)(C)C)c2)c1` [Example 206], the IC50 is 1 to 10 µM in test [1] (setting [5]), ≤ 0.1 µM in test [2] (setting [6]), 0.1 to 0.5 µM in test [3] (setting [7]) and 0.1 to 0.5 µM in test [4] (setting [8]).
For the compound `CNC(=O)c1cc(-c2cccc(-c3cc(NC(=O)c4ccnc(C(C)(C)C#N)c4)ccc3C)n2)ccn1` [Example 234], the IC50 in test [1] (setting [5]) was 1 to 10 µM; in test [2] (setting [6]), ≤ 0.1 µM; in test [3] (setting [7]), ≤ 0.1 µM; in test [4] (setting [8]), ≤ 0.1 µM.
As for `Cc1ncc(NC(=O)CC2COC2)cc1-c1cccc(-c2cc(NC(=O)C3CC3)ncn2)c1` [Example 356], the IC50 is 1 to 10 µM in test [1] (setting [5]), 0.5 to 1 µM in test [2] (setting [6]), 1 to 10 µM in test [3] (setting [7]) and 1 to 10 µM in test [4] (setting [8]).
With `COC(=O)Nc1cc(-c2cnnc(-c3cc(NC(=O)c4ccnc(C(C)(C)C#N)c4)ccc3F)c2)ccn1` [Example 390], the IC50 in test [1] (biochemical assay (1), read-out: ARAF (1)) is 1 to 10 µM; in test [2] (biochemical assay (1), read-out: BRAF VE (1)), 0.1 to 0.5 µM; in test [3] (biochemical assay (1), read-out: BRAF (1)), ≤ 0.1 µM; in test [4] (biochemical assay (1), read-out: CRAF (1)), ≤ 0.1 µM.
As to `Cc1ncc(NC(=O)C2CCOC2)cc1-c1nccc(-c2ccnc(NC(=O)C3CC3)c2)n1` (centres unmarked) [Example 335], the IC50 in test [1] (setting [5]), in test [2] (setting [6]), in test [3] (setting [7]) and in test [4] (setting [8]) was 1 to 10 µM throughout.
As to `CNC(=O)c1cc(-c2cc(-c3cc(NC(=O)c4ccnc(C(F)(F)F)c4)ccc3C)cc(=O)n2C)ccn1` [Example 67], the IC50 was 1 to 10 µM in test [1] (setting [5]), ≤ 0.1 µM in test [2] (setting [6]), 1 to 10 µM in test [3] (setting [7]) and 0.5 to 1 µM in test [4] (setting [8]).
With `Cc1ncc(NC(=O)CC2CC(F)(F)C2)cc1-c1nccc(-c2ccnc(NC(=O)C3CC3)c2)n1` [Example 354], the IC50 is 1 to 10 µM in test [1] (setting [5]), ≤ 0.1 µM in test [2] (setting [6]), 0.5 to 1 µM in test [3] (setting [7]) and 0.1 to 0.5 µM in test [4] (setting [8]).
On the same counts, the results for `Cc1cc(C(=O)Nc2cnc(C)c(-c3nccc(-c4ccnc(NC(=O)C5CC5)c4)n3)c2)ccn1` [Example 296] are 1 to 10 µM, ≤ 0.1 µM, 0.1 to 0.5 µM and 0.1 to 0.5 µM.
On the same counts, the results for `Cc1ncc(NC(=O)C2CCN(C)C2)cc1-c1cccc(-c2cc(NC(=O)C3CC3)ncn2)c1` (centres unmarked) [Example 351] are 1 to 10 µM, 0.5 to 1 µM, 1 to 10 µM and 1 to 10 µM.
On to `COC(C)(C)C(=O)Nc1cc(-c2cccc(-c3cc(NC(=O)c4ccnc(C(C)(C)C#N)c4)cnc3C)c2)ncn1` [Example 208], for which the IC50 fell in the range of 1 to 10 µM in test [1] (setting [5]), 0.1 to 0.5 µM in test [2] (setting [6]), 1 to 10 µM in test [3] (setting [7]) and 0.5 to 1 µM in test [4] (setting [8]).
For `COCCNc1cc(-c2cncc(-c3cc(NC(=O)c4ccnc(C(F)(F)F)c4)ccc3C)n2)ccn1` [Example 119], the IC50 in test [1] (setting [5]) was 1 to 10 µM; in test [2] (setting [6]) it was ≤ 0.1 µM; in test [3] (setting [7]), 0.1 to 0.5 µM; in test [4] (setting [8]), 0.1 to 0.5 µM.
Regarding `Cc1ncc(NC(=O)c2ccnc(C(C)(C)C#N)c2)cc1-c1ccnc(-c2ccnc(NC(=O)C(C)(C)C)c2)c1` [Example 228], the IC50 in test [1] (setting [5]) is 1 to 10 µM; in test [2] (setting [6]), ≤ 0.1 µM; in test [3] (setting [7]), 0.1 to 0.5 µM; in test [4] (setting [8]) it was 0.1 to 0.5 µM.
For `CCOc1ncc(-c2cc(NC(=O)c3ccnc(C(C)(C)C#N)c3)ccc2C)cc1-c1ccnc(C(=O)NC)c1` [Example 260], the IC50 in test [1] (setting [5]) was 1 to 10 µM; in test [2] (setting [6]), ≤ 0.1 µM; in test [3] (setting [7]) it was 0.1 to 0.5 µM; in test [4] (setting [8]), ≤ 0.1 µM.
As to `CO[C@H]1CC[C@H](C(=O)Nc2cnc(C)c(-c3cccc(-c4ccnc(NC(=O)C5CC5)c4)n3)c2)CC1` [Example 343], the IC50 in test [1] (setting [5]) is 1 to 10 µM; in test [2] (setting [6]) it was 0.1 to 0.5 µM; in test [3] (setting [7]), 1 to 10 µM; in test [4] (setting [8]), 0.5 to 1 µM.
As for `Cc1ccc(NC(=O)c2cc(C(F)(F)F)ccn2)cc1-c1ccnc(-c2ccnc(NC(=O)C3CC3)c2)n1` [Example 188], the IC50 is 1 to 10 µM in test [1] (setting [5]), ≤ 0.1 µM in test [2] (setting [6]), ≤ 0.1 µM in test [3] (setting [7]) and ≤ 0.1 µM in test [4] (setting [8]).
As to `Cc1cc(F)c(NC(=O)c2ccnc(C(C)(C)C#N)c2)cc1-c1nccc(-c2ccnc(NC(=O)C3CC3)c2)n1` [Example 244], the IC50 was 0.1 to 0.5 µM in test [1] (setting [5]), ≤ 0.1 µM in test [2] (setting [6]), ≤ 0.1 µM in test [3] (setting [7]) and ≤ 0.1 µM in test [4] (setting [8]).
In the case of `Cc1ncc(NC(=O)C2CCN(C)C2)cc1-c1nccc(-c2ccnc(NC(=O)C3CC3)c2)n1` (centres unmarked) [Example 334], the IC50 in test [1] (setting [5]), in test [2] (setting [6]), in test [3] (setting [7]) and in test [4] (setting [8]) was 1 to 10 µM in each case.
Turning to `Cc1ccc(NC(=O)C23CCC(C#N)(CC2)CC3)cc1-c1ccnc(-c2ccnc(NC(=O)C3CC3)c2)n1` [Example 340], the IC50 in test [1] (setting [5]) was 1 to 10 µM; in test [2] (setting [6]) it was ≤ 0.1 µM; in test [3] (setting [7]), 1 to 10 µM; in test [4] (setting [8]) it was 0.1 to 0.5 µM.
Regarding `Cc1ncc(NC(=O)c2ccnc(C(C)(C)C#N)c2)cc1-c1nccc(-c2ccnc3c2CC(=O)N3)n1` [Example 93], the IC50 in test [1] (setting [5]) lay within 1 to 10 µM; in test [2] (setting [6]) it was 0.1 to 0.5 µM; in test [3] (setting [7]), 1 to 10 µM; in test [4] (setting [8]), 0.5 to 1 µM.
Turning to `COC(C)(C)C(=O)Nc1cc(-c2cccc(-c3cc(NC(=O)c4ccnc(C(C)(C)C#N)c4)ccc3C)c2)ncn1` [Example 211], the IC50 in test [1] (setting [5]) was 1 to 10 µM; in test [2] (setting [6]) it was ≤ 0.1 µM; in test [3] (setting [7]) it was 0.5 to 1 µM; in test [4] (setting [8]) it was 0.5 to 1 µM.
